According to PubChem BioAssay AID204 (DTP/NCI, 2004):
Several values for one entry are separate records, joined by “and”; a condition that tells them apart may be missing. Equal values may be shown once. Inconclusive results and toxic doses are left out. Starred links: 1 amine or outer side, 2 acyl side, 3 side chain; linkers in the order of their positions; H or OH if unused. Positions of bridges follow the written chain, without caps; N, C: chain ends. Non-standard residues stand in square brackets, D forms with d. Residues, ends and D or L forms follow the SMILES beside them. Chains are numbered I, II in the order given. Actinocin(9to1) = Cc1c2oc3c(C)ccc(C(=O)[*:1])c3nc-2c(C(=O)[*:2])c(N)c1=O; aThr = C[C@H](O)[C@H](N)C(=O)O; NMeV = CN[C@H](C(=O)O)C(C)C; Sar = CNCC(=O)O

Tested on: BDF1 mice, P288 methotrexate-resistant leukemia, survival T/C
Assay: NCI In Vivo Anticancer Drug Screen. Data for tumor model P288 Lymphocytic Leukemia resistant to methotrexate; NSC 740 (intraperitoneal) in B6D2F1 (BDF1) mice
Conditions: endpoint: median survival time, higher = longer survival
Description: The antitumor activity of compounds was measured in mice bearing transplantable tumors. Survival or tumor size were measured and the results are expressed as the measurement made in the treated group (T) divided by the measurement made in the vehicle treated control group (C). The tumor model used in this assay is P288 Lymphocytic Leukemia resistant to methotrexate; NSC 740 (intraperitoneal) in B6D2F1 (BDF1) mice

[1] = dose: 5.0 mg/kg/injection, schedule: Q01DX010 (ip), vehicle: saline
[2] = dose: 20.0 mg/kg/injection, schedule: Q01DX010 (ip), vehicle: saline
[3] = dose: 12.5 mg/kg/injection, schedule: Q01DX010 (sc), vehicle: steriod suspending solution
[4] = dose: 25.0 mg/kg/injection, schedule: Q01DX010 (sc), vehicle: steriod suspending solution
[5] = dose: 50.0 mg/kg/injection, schedule: Q01DX010 (sc), vehicle: steriod suspending solution
[6] = dose: 100.0 mg/kg/injection, schedule: Q01DX010 (sc), vehicle: steriod suspending solution
[7] = dose: 0.5 mg/kg/injection, schedule: Q01DX010 (ip), vehicle: saline
[8] = dose: 1.0 mg/kg/injection, schedule: Q01DX010 (ip), vehicle: saline
[9] = dose: 0.25 mg/kg/injection, schedule: Q01DX010 (ip), vehicle: saline

Question: Which results are given for `Cc1cc(N(CCCl)CCCl)ccc1N=Nc1ccccc1C(=O)O`?
Answer: T/C [1]: 104 % of control and 105 % of control; T/C (dose: 10.0 mg/kg/injection, schedule: Q01DX010 (ip), vehicle: saline): 109 % of control and 110 % of control; T/C [2]: 115 % of control

Question: Which results are given for `CC/C(=C(/CC)c1ccc(O)cc1)c1ccc(O)cc1`?
Answer: T/C [3]: 100 % of control and 110 % of control; T/C [4]: 105 % of control; T/C [5]: 100 % of control and 105 % of control; T/C [6]: 90 % of control and 100 % of control

Question: Which T/C (dose: 200.0 mg/kg/injection, schedule: Q01DX010 (ip), vehicle: saline) does the source give for `CN(C)CC(=O)c1ccc(O)c(O)c1` here?
Answer: 110 % of control and 113 % of control

Question: And the T/C (dose: 300.0 mg/kg/injection, schedule: Q01DX010 (ip), vehicle: saline)?
Answer: 120 % of control and 122 % of control

Question: What about the T/C (dose: 450.0 mg/kg/injection, schedule: Q01DX010 (ip), vehicle: saline) of the same molecule?
Answer: 115 % of control and 118 % of control

Question: What about the T/C (dose: 675.0 mg/kg/injection, schedule: Q01DX010 (ip), vehicle: saline) of the same molecule?
Answer: 122 % of control

Question: How did the T/C (dose: 1.25 mg/kg/injection, schedule: Q01DX010 (ip), vehicle: other) turn out when `Nc1nc(=S)c2[nH]cnc2[nH]1` was run?
Answer: 88 % of control and 118 % of control

Question: And the T/C (dose: 2.5 mg/kg/injection, schedule: Q01DX010 (ip), vehicle: other)?
Answer: 111 % of control and 112 % of control

Question: And the T/C (dose: 5.0 mg/kg/injection, schedule: Q01DX010 (ip), vehicle: other)?
Answer: 111 % of control

Question: How did the T/C [7] turn out when `NC(=O)N(CCCl)N=O` was run?
Answer: 210 % of control and 213 % of control

Question: What about the T/C [8] of the same molecule?
Answer: 300 % of control

Question: What about the T/C (dose: 2.0 mg/kg/injection, schedule: Q01DX010 (ip), vehicle: saline) of the same molecule?
Answer: 168 % of control and 300 % of control

Question: What about the T/C (dose: 4.0 mg/kg/injection, schedule: Q01DX010 (ip), vehicle: saline) of the same molecule?
Answer: 90 % of control

Question: `CS(=O)(=O)OCCCl` was tested. Which T/C (dose: 18.8 mg/kg/injection, schedule: Q01DX010 (ip), vehicle: saline) did it give?
Answer: 94 % of control

Question: And the T/C (dose: 75.0 mg/kg/injection, schedule: Q01DX010 (ip), vehicle: saline)?
Answer: 90 % of control and 110 % of control

Question: And the T/C (dose: 150.0 mg/kg/injection, schedule: Q01DX010 (ip), vehicle: saline)?
Answer: 118 % of control and 121 % of control

Question: `CS(=O)(=O)OCCN(CCOS(C)(=O)=O)c1ccc(N=O)cc1` was tested. Which T/C [7] did it give?
Answer: 120 % of control

Question: How did the T/C (dose: 62.5 mg/kg/injection, schedule: Q01DX010 (ip), vehicle: saline) turn out when `OCC1OC(n2cnc3c(Cl)ncnc32)C(O)C1O` (stereo not given) was run?
Answer: 95 % of control and 100 % of control

Question: And the T/C (dose: 125.0 mg/kg/injection, schedule: Q01DX010 (ip), vehicle: saline)?
Answer: 90 % of control and 100 % of control

Question: What about the T/C (dose: 250.0 mg/kg/injection, schedule: Q01DX010 (ip), vehicle: saline) of the same molecule?
Answer: 90 % of control and 105 % of control

Question: What about the T/C (dose: 500.0 mg/kg/injection, schedule: Q01DX010 (ip), vehicle: saline) of the same molecule?
Answer: 90 % of control

Question: How did the T/C (dose: 0.13 mg/kg/injection, schedule: Q01DX010 (ip), vehicle: saline) turn out when `C1CN1c1nc(N2CC2)nc(N2CC2)n1` was run?
Answer: 90 % of control and 91 % of control

Question: What about the T/C [9] of the same molecule?
Answer: 108 % of control and 110 % of control

Question: And the T/C [8]?
Answer: 90 % of control

Question: What does the source list for `C[C@H]1C(=O)O[C@@H]2CCN3CC=C(COC(=O)[C@](C)(O)[C@@]1(C)O)[C@H]23`?
Answer: T/C (dose: 3.13 mg/kg/injection, schedule: Q01DX010 (ip), vehicle: saline): 100 % of control and 103 % of control; T/C (dose: 6.25 mg/kg/injection, schedule: Q01DX010 (ip), vehicle: saline): 91 % of control and 111 % of control; T/C (dose: 12.5 mg/kg/injection, schedule: Q01DX010 (ip), vehicle: saline): 91 % of control; T/C (dose: 25.0 mg/kg/injection, schedule: Q01DX010 (ip), vehicle: saline): 91 % of control and 96 % of control

Question: `CN(C)c1ccc(/C=C\c2ccnc3ccccc23)cc1` was tested. Which T/C (dose: 1.5 mg/kg/injection, schedule: Q01DX010 (ip), vehicle: saline) did it give?
Answer: 100 % of control

Question: And the T/C (dose: 3.0 mg/kg/injection, schedule: Q01DX010 (ip), vehicle: saline)?
Answer: 100 % of control

Question: What about the T/C (dose: 6.0 mg/kg/injection, schedule: Q01DX010 (ip), vehicle: saline) of the same molecule?
Answer: 100 % of control

Question: And the T/C (dose: 12.0 mg/kg/injection, schedule: Q01DX010 (ip), vehicle: saline)?
Answer: 105 % of control

Question: What does the source list for `CC(=O)O[C@]1(C(C)=O)CC[C@H]2[C@@H]3C[C@H](C)C4=CC(=O)C=C[C@]4(C)[C@@]3(F)[C@@H](O)C[C@@]21C`?
Answer: T/C [3]: 100 % of control; T/C [4]: 110 % of control; T/C [5]: 105 % of control; T/C [6]: 100 % of control

Question: For `CC[C@]1(O)C[C@H]2CN(CCc3c([nH]c4ccccc34)[C@@](C(=O)OC)(c3cc4c(cc3OC)N(C=O)[C@H]3[C@@](O)(C(=O)OC)[C@H](OC(C)=O)[C@]5(CC)C=CCN6CC[C@]43[C@@H]65)C2)C1`, which T/C (dose: 0.03 mg/kg/injection, schedule: Q01DX010 (ip), vehicle: saline) is on record?
Answer: 121 % of control and 123 % of control

Question: And the T/C (dose: 0.06 mg/kg/injection, schedule: Q01DX010 (ip), vehicle: saline)?
Answer: 157 % of control

Question: And the T/C (dose: 0.12 mg/kg/injection, schedule: Q01DX010 (ip), vehicle: saline)?
Answer: 161 % of control and 162 % of control

Question: And the T/C [9]?
Answer: 90 % of control

Question: How did the T/C [1] turn out when `O=c1[nH]cc(F)c(=O)[nH]1` was run?
Answer: 108 % of control

Question: And the T/C [2]?
Answer: 159 % of control

Question: What about the T/C (dose: 40.0 mg/kg/injection, schedule: Q01DX010 (ip), vehicle: saline) of the same molecule?
Answer: 91 % of control and 95 % of control

Question: Which results are given for `Cc1c2oc3c(C)ccc(C(=O)N[C@@H]4C(=O)N[C@H](C(C)C)C(=O)N5CCC[C@H]5C(=O)N(C)CC(=O)N(C)[C@@H](C(C)C)C(=O)O[C@H]4C)c3nc-2c(C(=O)N[C@@H]2C(=O)N[C@H](C(C)C)C(=O)N3CCC[C@H]3C(=O)N(C)CC(=O)N(C)[C@@H](C(C)C)C(=O)O[C@H]2C)c(N)c1=O` (I: [aThr][dV]P[Sar][NMeV] / II: [aThr][dV]P[Sar][NMeV]; ester I:1-I:C, II:1-II:C; linker I:N-II:N via Actinocin(9to1))?
Answer: T/C (dose: 25.0 micrograms/kg/injection, schedule: Q01DX010 (ip), vehicle: other): 160 % of control; T/C (dose: 50.0 micrograms/kg/injection, schedule: Q01DX010 (ip), vehicle: other): 190 % of control
